{"source": "paper PMC11233931", "about": "“Remodeling tumor‐associated macrophage for anti‐cancer effects by rational design of irreversible inhibition of mitogen‐activated protein kinase‐activated protein kinase 2” (MedComm, 2024)", "experiment_in_all_cases": "Eurofins kinase selectivity profile against 380 other human recombinant kinases (Table S2)", "type_in_all_cases": "biochemical", "key": {"[1]": {"target": "T1, 380 human recombinant protein kinases (Homo sapiens, UniProt Q9H2X6)", "T1 construct": "purchased Eurofins (Celle Lévescault)", "T1 sequence (Q9H2X6 whole entry)": "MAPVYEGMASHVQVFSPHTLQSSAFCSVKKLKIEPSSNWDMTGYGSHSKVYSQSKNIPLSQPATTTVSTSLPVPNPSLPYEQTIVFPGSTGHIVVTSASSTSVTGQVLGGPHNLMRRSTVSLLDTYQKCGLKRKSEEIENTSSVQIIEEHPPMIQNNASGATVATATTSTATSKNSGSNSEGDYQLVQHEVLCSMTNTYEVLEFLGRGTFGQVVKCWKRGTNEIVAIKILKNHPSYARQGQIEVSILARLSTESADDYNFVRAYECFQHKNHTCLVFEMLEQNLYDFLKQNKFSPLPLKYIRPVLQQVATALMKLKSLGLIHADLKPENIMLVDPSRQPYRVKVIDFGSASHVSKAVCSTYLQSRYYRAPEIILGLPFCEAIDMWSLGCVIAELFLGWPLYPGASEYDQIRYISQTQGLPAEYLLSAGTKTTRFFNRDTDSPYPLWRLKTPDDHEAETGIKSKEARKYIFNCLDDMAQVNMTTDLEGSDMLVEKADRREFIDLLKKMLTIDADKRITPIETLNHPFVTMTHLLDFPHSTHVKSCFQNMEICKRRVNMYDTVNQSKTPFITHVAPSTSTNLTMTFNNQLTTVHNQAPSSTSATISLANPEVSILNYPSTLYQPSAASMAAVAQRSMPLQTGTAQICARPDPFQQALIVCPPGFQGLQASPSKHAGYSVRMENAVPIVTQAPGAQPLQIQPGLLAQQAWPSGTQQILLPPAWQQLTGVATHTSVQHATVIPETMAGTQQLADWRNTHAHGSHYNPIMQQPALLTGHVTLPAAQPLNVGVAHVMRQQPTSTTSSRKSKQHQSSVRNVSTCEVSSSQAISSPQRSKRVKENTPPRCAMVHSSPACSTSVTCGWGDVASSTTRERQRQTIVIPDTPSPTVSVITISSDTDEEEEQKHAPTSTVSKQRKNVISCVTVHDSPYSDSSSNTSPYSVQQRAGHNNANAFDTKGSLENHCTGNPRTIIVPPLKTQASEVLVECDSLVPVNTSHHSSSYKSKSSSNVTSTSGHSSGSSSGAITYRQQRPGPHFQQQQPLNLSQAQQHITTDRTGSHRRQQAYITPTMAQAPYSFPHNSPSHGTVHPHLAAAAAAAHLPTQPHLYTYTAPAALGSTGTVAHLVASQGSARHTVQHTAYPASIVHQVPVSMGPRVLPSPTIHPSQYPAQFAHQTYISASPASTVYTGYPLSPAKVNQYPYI", "settings": "HIPK2(h), read-out: Inhibition rate", "outline": "(§1)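 Outsourced panel: 380 human recombinant kinases; inhibitor tested at various concentrations; purpose: MK2 selectivity check.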"}, "[2]": {"target": "T2, 380 human recombinant protein kinases (Homo sapiens, UniProt Q9UKI8)", "T2 construct": "purchased Eurofins (Celle Lévescault)", "T2 sequence (Q9UKI8 1-766)": "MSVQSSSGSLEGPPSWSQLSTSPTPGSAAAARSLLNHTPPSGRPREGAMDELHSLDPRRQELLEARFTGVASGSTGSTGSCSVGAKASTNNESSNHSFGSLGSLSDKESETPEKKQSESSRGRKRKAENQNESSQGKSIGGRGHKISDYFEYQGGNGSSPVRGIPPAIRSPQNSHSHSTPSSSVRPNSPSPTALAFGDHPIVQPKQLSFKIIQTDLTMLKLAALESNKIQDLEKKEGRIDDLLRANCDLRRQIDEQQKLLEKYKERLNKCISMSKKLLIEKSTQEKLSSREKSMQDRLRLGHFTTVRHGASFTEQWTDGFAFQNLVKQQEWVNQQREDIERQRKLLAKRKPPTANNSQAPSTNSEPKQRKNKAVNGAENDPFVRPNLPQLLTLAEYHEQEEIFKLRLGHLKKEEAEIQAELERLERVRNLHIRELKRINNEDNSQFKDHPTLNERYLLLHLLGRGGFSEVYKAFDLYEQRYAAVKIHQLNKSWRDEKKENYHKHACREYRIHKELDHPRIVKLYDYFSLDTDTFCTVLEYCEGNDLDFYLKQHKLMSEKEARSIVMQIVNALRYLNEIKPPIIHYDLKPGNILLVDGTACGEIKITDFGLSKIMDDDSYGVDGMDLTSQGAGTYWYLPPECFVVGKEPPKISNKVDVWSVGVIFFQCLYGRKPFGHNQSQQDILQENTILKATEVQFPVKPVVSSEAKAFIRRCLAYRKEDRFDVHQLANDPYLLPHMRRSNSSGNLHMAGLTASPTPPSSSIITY", "settings": "TLK1(h), read-out: Inhibition rate (%)", "outline": "as §1"}, "[3]": {"target": "T3, 380 human recombinant protein kinases (Homo sapiens, UniProt O00418)", "T3 construct": "purchased Eurofins (Celle Lévescault)", "T3 sequence (O00418 1-725)": "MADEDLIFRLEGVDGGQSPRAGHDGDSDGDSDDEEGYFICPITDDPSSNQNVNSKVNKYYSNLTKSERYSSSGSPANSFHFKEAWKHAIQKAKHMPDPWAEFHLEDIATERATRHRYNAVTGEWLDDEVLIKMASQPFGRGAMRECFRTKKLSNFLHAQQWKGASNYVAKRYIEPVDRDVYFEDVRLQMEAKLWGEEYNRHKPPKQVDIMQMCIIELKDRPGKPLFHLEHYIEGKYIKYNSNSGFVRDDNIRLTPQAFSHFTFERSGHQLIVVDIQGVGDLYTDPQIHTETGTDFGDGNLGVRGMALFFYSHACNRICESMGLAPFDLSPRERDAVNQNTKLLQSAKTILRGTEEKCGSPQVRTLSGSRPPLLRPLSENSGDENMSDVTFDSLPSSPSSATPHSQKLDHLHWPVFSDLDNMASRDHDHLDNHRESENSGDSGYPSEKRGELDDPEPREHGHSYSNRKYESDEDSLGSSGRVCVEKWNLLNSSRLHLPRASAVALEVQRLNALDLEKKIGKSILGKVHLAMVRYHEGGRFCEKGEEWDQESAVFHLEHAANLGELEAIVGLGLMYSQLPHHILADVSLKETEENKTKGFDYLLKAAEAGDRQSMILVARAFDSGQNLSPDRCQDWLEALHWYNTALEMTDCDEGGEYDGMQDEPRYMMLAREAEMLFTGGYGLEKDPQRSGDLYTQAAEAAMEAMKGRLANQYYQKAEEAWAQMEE", "settings": "eEF-2K(h), read-out: Inhibition rate", "outline": "as §1"}, "[4]": {"target": "T4, 380 human recombinant protein kinases (Homo sapiens, UniProt Q02750)", "T4 construct": "purchased Eurofins (Celle Lévescault)", "T4 sequence (Q02750 whole entry)": "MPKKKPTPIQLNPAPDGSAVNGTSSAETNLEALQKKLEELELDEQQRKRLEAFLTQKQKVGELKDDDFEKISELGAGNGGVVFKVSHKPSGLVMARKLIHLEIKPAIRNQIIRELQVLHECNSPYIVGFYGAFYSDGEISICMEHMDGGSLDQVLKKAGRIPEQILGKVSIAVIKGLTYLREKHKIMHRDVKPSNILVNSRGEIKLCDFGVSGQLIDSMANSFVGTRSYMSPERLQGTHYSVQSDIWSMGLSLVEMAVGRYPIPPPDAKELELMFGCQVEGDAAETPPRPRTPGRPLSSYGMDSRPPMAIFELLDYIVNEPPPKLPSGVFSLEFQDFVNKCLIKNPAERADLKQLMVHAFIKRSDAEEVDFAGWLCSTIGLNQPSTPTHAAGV", "settings": "MEK1(h), read-out: Inhibition rate", "outline": "as §1"}, "[5]": {"target": "T5, 380 human recombinant protein kinases (Homo sapiens, UniProt Q15208)", "T5 construct": "purchased Eurofins (Celle Lévescault)", "T5 sequence (Q15208 whole entry)": "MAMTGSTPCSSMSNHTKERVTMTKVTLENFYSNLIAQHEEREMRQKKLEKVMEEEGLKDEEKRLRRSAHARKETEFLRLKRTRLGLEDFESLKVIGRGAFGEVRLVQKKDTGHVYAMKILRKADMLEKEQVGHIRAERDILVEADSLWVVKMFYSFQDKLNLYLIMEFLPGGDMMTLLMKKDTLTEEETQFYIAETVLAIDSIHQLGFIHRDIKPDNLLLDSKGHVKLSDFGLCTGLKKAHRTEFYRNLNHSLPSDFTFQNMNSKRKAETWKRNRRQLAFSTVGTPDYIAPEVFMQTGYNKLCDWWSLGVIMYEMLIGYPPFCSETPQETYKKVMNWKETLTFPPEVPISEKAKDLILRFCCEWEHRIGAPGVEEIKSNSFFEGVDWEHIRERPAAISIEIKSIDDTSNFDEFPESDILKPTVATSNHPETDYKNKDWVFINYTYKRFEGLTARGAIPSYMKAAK", "settings": "NDR1(h), read-out: Inhibition rate", "outline": "as §1"}, "[6]": {"target": "T6, 380 human recombinant protein kinases (Homo sapiens, UniProt Q9H0K1)", "T6 construct": "purchased Eurofins (Celle Lévescault)", "T6 sequence (Q9H0K1 whole entry)": "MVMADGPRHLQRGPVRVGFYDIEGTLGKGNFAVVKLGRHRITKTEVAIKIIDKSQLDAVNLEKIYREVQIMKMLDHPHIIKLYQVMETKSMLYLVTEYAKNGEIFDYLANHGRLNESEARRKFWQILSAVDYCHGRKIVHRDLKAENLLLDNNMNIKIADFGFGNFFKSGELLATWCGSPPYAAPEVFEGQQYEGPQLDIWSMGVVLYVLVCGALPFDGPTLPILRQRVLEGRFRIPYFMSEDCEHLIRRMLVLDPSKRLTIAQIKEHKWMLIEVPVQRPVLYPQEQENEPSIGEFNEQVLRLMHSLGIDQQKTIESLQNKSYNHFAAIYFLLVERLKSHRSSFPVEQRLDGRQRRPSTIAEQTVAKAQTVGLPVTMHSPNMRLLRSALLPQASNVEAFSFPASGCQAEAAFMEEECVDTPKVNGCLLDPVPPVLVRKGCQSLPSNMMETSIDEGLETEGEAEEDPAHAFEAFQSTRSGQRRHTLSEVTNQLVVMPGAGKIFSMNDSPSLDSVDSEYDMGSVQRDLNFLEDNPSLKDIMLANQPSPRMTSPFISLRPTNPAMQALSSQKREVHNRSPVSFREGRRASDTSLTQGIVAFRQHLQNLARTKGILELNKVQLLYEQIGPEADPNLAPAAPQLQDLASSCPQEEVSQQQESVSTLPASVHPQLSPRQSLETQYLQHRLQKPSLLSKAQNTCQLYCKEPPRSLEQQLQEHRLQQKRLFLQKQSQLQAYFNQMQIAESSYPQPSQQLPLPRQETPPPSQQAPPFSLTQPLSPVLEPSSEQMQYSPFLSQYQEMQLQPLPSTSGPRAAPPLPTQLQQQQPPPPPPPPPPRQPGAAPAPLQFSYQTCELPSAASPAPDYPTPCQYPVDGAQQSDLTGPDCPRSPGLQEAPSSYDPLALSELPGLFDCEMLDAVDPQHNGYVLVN", "settings": "SIK2(h), read-out: Inhibition rate (%)", "outline": "as §1"}}}
{"smiles": "C=CC(=O)Nc1cc(-c2cc(-c3cc4c([nH]3)CCNC4=O)ccn2)ccc1OC(F)(F)F", "note": "[compound 11]", "values": [{"measurement": "inhibition at 0.01 µM", "setting": "[1]; 10 nM", "result": -13, "unit": "%"}, {"measurement": "inhibition at 0.1 µM", "setting": "[1]; 100 nM", "result": -9, "unit": "%"}, {"measurement": "inhibition at 1 µM", "setting": "[1]; 1000 nM", "result": 3, "unit": "%"}, {"measurement": "inhibition at 0.01 µM", "setting": "[2]; 10 nM", "result": 13, "unit": "%"}, {"measurement": "inhibition at 0.1 µM", "setting": "[2]; 100 nM", "result": 0, "unit": "%"}, {"measurement": "inhibition at 1 µM", "setting": "[2]; 1000 nM", "result": -5, "unit": "%"}, {"measurement": "inhibition at 0.01 µM", "setting": "[3]; 10 nM", "result": -4, "unit": "%"}, {"measurement": "inhibition at 0.1 µM", "setting": "[3]; 100 nM", "result": -10, "unit": "%"}, {"measurement": "inhibition at 1 µM", "setting": "[3]; 1000 nM", "result": -27, "unit": "%"}, {"measurement": "inhibition at 0.01 µM", "setting": "[4]; 10 nM", "result": -12, "unit": "%"}, {"measurement": "inhibition at 0.1 µM", "setting": "[4]; 100 nM", "result": -4, "unit": "%"}, {"measurement": "inhibition at 1 µM", "setting": "[4]; 1000 nM", "result": -8, "unit": "%"}, {"measurement": "inhibition at 0.01 µM", "setting": "[5]; 10 nM", "result": -17, "unit": "%"}, {"measurement": "inhibition at 0.1 µM", "setting": "[5]; 100 nM", "result": -14, "unit": "%"}, {"measurement": "inhibition at 1 µM", "setting": "[5]; 1000 nM", "result": -12, "unit": "%"}, {"measurement": "inhibition at 0.01 µM", "setting": "[6]; 10 nM", "result": 2, "unit": "%"}, {"measurement": "inhibition at 0.1 µM", "setting": "[6]; 100 nM", "result": 4, "unit": "%"}, {"measurement": "inhibition at 1 µM", "setting": "[6]; 1000 nM", "result": 8, "unit": "%"}]}
